Here are results for 16 compounds from ChEMBL document CHEMBL3399984, “Identification of Bacillus anthracis PurE inhibitors with antimicrobial activity” (Bioorg Med Chem, 2015).

The subject of test [1] is Bacillus anthracis. Briefly: Inhibition of recombinant Bacillus anthracis PurE assessed as change in melting temperature at 100 uM after 10 to 30 mins by high-throughput thermal shift screening.
Test [2] relates to Bacillus anthracis. Briefly: Inhibition of recombinant Bacillus anthracis PurE assessed as inhibition of 4-carboxy-amino-imidazole ribonucleotide to N5-carboxy-amino-imidazole ribonucleotide conversion preincubated for 1.5 mins at 10 uM by mass spectrometry analysis.
The test system of test [3] is Bacillus anthracis. Briefly: Antimicrobial activity against Bacillus anthracis deltaANR measured after overnight incubation. The format is functional.
For test [4], the system named is Francisella tularensis. Briefly: Antimicrobial activity against Francisella tularensis BEI/ATCC UTAH 112 measured after overnight incubation. The format is functional.
Test [5] concerns Yersinia pestis. Briefly: Antimicrobial activity against Yersinia pestis BEI/ATCC A1122 measured after overnight incubation. The class given is functional.
Test [6] concerns Staphylococcus aureus. Briefly: Antimicrobial activity against methicillin-resistant Staphylococcus aureus ATCC 43300 measured after overnight incubation. The format is functional.
In test [7] the test system is Staphylococcus aureus. Briefly: Antimicrobial activity against methicillin-sensitive Staphylococcus aureus ATCC 29213 measured after overnight incubation. The class given is functional.
Test [8] relates to Escherichia coli. Briefly: Antimicrobial activity against TolC-deficient Escherichia coli BW25113 measured after overnight incubation. The format is functional.
Test [9] concerns Bacillus anthracis. Briefly: Bactericidal activity against Bacillus anthracis deltaANR measured after 72 hrs. The format is functional.
Test [10] relates to Bacillus anthracis. Briefly: Ratio of MBC to MIC for against Bacillus anthracis deltaANR measured after 72 hrs. The class given is functional.
The nature of test [11]: Ratio of MIC for Francisella tularensis BEI/ATCC UTAH 112 to MIC for Bacillus anthracis deltaANR. The class given is functional.
The nature of test [12]: Ratio of MIC for Yersinia pestis BEI/ATCC A1122 to MIC for Bacillus anthracis deltaANR. The class given is functional.
A short description of test [13]: Binding affinity to Gallus gallus PurE.
A short description of test [14]: Binding affinity to Escherichia coli PurE.

In brackets after ≈: the same amount, converted by molar mass. Some results are limits rather than exact numbers.

Take `O=C(Nc1cccc(C(F)(F)F)c1)N1CCN(c2ccc3nncn3n2)CC1`: the ΔTm in test [1] worked out at 3.1 °C. The inhibition in test [2] turned out to be 14%. Besides, the MIC in test [3], in test [4] and in test [5] was > 12.5 µg/mL throughout.

Turning to `Cc1ccc(C)c(-c2nnc(NC(=O)c3cccc(Cl)c3)o2)c1`, the ΔTm in test [1] came to 2.4 °C. Further, in test [2], the inhibition worked out at 19%. Moreover, the minimum inhibitory concentration (MIC) was 0.1 µg/mL (≈ 0.305 µM) in test [3]; 6.3 µg/mL (≈ 19.2 µM) in test [4]; > 12.5 µg/mL in test [6]; > 12.5 µg/mL in test [5]; 0.2 µg/mL (≈ 0.61 µM) in [7]; 0.02 µg/mL (≈ 0.061 µM) in test [8]. Moreover, the MBC in [9] is > 12.5 µg/mL. Besides, the MBC/MIC ratio in test [10] was > 4 µg/mL. Also, the Ratio in [11] and in test [12] was 10 throughout.

Take `O=C(NCc1c(-c2ccc(Cl)cc2)nc2n1CCS2)c1cccs1`: the shift in melting temperature (ΔTm) in [1] turned out to be 4.7 °C. Also, in test [2], the inhibition was found to be 11%. The MIC in test [3], in [4] and in [5] was > 12.5 µg/mL throughout.

As for `CCCCC(CC)CNc1nc2c(c(=O)[nH]c(=O)n2C)n1CC(O)COc1ccc(C)c(C)c1` (stereo unspecified), the ΔTm in test [1] was 1.8 °C. For the same compound, in test [2], the inhibition was found to be 7%. In test [4], the MIC is > 12.5 µg/mL.

`O=C(Oc1ccccc1)Oc1ccc(N(C(=O)Oc2ccccc2)S(=O)(=O)c2ccc3ccccc3c2)cc1Br`: the ΔTm in test [1] stood at 5.2 °C. The inhibition in test [2] turned out to be 28%. The MIC in test [3] was > 12.5 µg/mL.

`Cc1c(C(=O)Nc2nnc(-c3cc(Cl)ccc3Cl)o2)c(-c2ccccc2)nc2ccccc12`: the ΔTm in test [1] was 7.9 °C. Moreover, the inhibition in test [2] was 19%. Further, the MIC in [3] is 0.1 µg/mL (≈ 0.21 µM); in test [4], 3.1 µg/mL (≈ 6.52 µM); in test [6], 6.25 µg/mL (≈ 13.1 µM); in test [5] it was > 12.5 µg/mL; in [7], > 12.5 µg/mL; in test [8], 0.39 µg/mL (≈ 0.82 µM). The minimal bactericidal concentration (MBC) in test [9] was > 12.5 µg/mL. Moreover, the MBC/MIC ratio in test [10] was > 4 µg/mL. Moreover, the Ratio in [11] and in test [12] was 10 each time.

`O=C(Cc1ccc(NC(=O)c2ccc(F)cc2Cl)cc1)NCc1cccs1`: in test [1], the ΔTm is 1.8 °C. For the same compound, the inhibition in test [2] is 20%. The minimum inhibitory concentration (MIC) in [3], in test [4] and in [5] was > 12.5 µg/mL each time.

As for `Cc1ccc(C)c(-c2nnc(NC(=O)c3cc(Cl)sc3Cl)o2)c1`, the ΔTm in [1] was 1.1 °C. Also, the inhibition in [2] is 20%. Also, the MIC in test [3] was found to be 0.05 µg/mL (≈ 0.136 µM); in test [4], 1.6 µg/mL (≈ 4.34 µM); in test [6], 1.95 µg/mL (≈ 5.3 µM); in [5] it was 3.1 µg/mL (≈ 8.42 µM); in [7], 0.78 µg/mL (≈ 2.12 µM); in test [8], 0.07 µg/mL (≈ 0.19 µM). Besides, in [9], the MBC was > 12.5 µg/mL. The MBC/MIC ratio in [10] was > 4 µg/mL. Further, the Ratio in test [11] and in test [12] was 10 in each case.

For `O=C(O)c1cn(C2CC2)c2cc(N3CCNCC3)c(F)cc2c1=O` [CIPROFLOXACIN], the minimal inhibitory concentration (MIC) in test [3] is 0.11 µg/mL (≈ 0.332 µM); in test [4], 0.03 µg/mL (≈ 0.0905 µM); in test [6], 0.34 µg/mL (≈ 1.03 µM); in test [5], 0.04 µg/mL (≈ 0.121 µM); in test [7], 0.35 µg/mL (≈ 1.06 µM).

Consider `CC(=O)NC[C@H]1CN(c2ccc(N3CCOCC3)c(F)c2)C(=O)O1` [LINEZOLID], for which the MIC in test [4] was 32 µg/mL (≈ 94.9 µM).

For `COc1cccc(-c2nc(Cn3nnc(C(=O)NCc4ccc(Cl)cc4)c3N)c(C)o2)c1OC`, the shift in melting temperature (ΔTm) in test [1] was 1.2 °C. In [2], the inhibition worked out at 6%. For the same compound, the MIC in test [3] and in test [4] was > 12.5 µg/mL in each case.

Regarding `Nc1c([N+](=O)[O-])ncn1[C@@H]1O[C@H](COP(=O)(O)O)[C@@H](O)[C@H]1O`, the ΔTm in test [1] was 5.6 °C. The inhibition in [2] turned out to be 24%. For the same compound, the Ki turned out to be 0.34 nM in [13] and 500 nM in [14].

Consider `NS(=O)(=O)c1ccc(NC(=O)CSc2nnc(-c3ccccc3)o2)cc1`, for which, in test [1], the ΔTm was 1.5 °C. In addition, the inhibition in test [2] was found to be 12%. Moreover, the minimal inhibitory concentration (MIC) in test [3] was > 12.5 µg/mL.

Regarding `Cc1sc2ccsc2[n+]1CC(=O)O.[Br-]`, the ΔTm in [1] came to 4.4 °C. The inhibition in [2] is 17%. Besides, the MIC in test [3], in test [4] and in test [5] was > 12.5 µg/mL in each case.

As to `COc1ccc(Cl)c(C(=O)Nc2nnc(-c3ccc(Br)cc3)o2)c1`, in test [1], the ΔTm is 1.4 °C. In addition, the inhibition in test [2] worked out at 15%. The MIC in [3] came out at 0.78 µg/mL (≈ 1.91 µM); in test [4] it was 1.2 µg/mL (≈ 2.94 µM); in test [6], 3.13 µg/mL (≈ 7.66 µM); in test [5] it was 3.1 µg/mL (≈ 7.59 µM); in test [7] it was 1.56 µg/mL (≈ 3.82 µM); in test [8] it was 0.39 µg/mL (≈ 0.954 µM). For the same compound, the MBC in test [9] was > 12.5 µg/mL. Moreover, the MBC/MIC ratio in test [10] is > 4 µg/mL. The Ratio in [11] and in test [12] was 10 each time.

Consider `COc1cccc(C(=O)Nc2ccc(-c3cn4ccsc4n3)cc2)c1OC`, for which the ΔTm in [1] was 3 °C. Further, the inhibition in test [2] turned out to be 17%. Further, the MIC in test [3], in test [4] and in test [5] was > 12.5 µg/mL throughout.
